Data published in patent publication US12180198B2, “Ribocil C antibiotics effective for Gram-negative pathogens” (THE BOARD OF TRUSTEES OF THE UNIVERSITY OF ILLINOIS, priority 2018, dated 2024).
Converted amounts (≈) assume the structure as drawn. Counter-ions that a name gives are not always drawn. Like-named read-outs stand apart in the source and are kept apart here.

Columns and labels:
Format in all cases: cell-based
A. baumannii F19521 = assay: MIC, micro-dilution broth method; details: Acinetobacter baumannii
How it was run: (§1)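 MICs were determined by CLSI broth micro-dilution in cation-adjusted Mueller-Hinton broth, with all testing done in biological triplicate. Values are reported in […].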

A. baumannii KB304 = assay: MIC, micro-dilution broth method; details: Acinetobacter baumannii
How it was run: as §1

A. baumannii KB357 = assay: MIC, micro-dilution broth method; details: Acinetobacter baumannii
How it was run: as §1

A. baumannii M13100 = assay: MIC, micro-dilution broth method; details: Acinetobacter baumannii
How it was run: as §1

A. baumannii W41979 = assay: MIC, micro-dilution broth method; details: Acinetobacter baumannii
How it was run: as §1

A. baumannii WO22 = assay: MIC, micro-dilution broth method; details: Acinetobacter baumannii
How it was run: as §1

E. cloacae S28901.1 = assay: MIC, micro-dilution broth method; details: Enterobacter cloacae
How it was run: as §1

E. coli AR-0346 = assay: MIC, micro-dilution broth method; details: Escherichia coli, AR0346
How it was run: as §1

E. coli AR-0349 = assay: MIC, micro-dilution broth method; details: Escherichia coli, AR0349
How it was run: as §1

E. coli AR-0493 = assay: MIC, micro-dilution broth method; details: Escherichia coli, AR0493
How it was run: as §1

E. coli AR-0495 = assay: MIC, micro-dilution broth method; details: Escherichia coli, AR0495
How it was run: as §1

E. coli BAA-2340 = assay: MIC, micro-dilution broth method; details: Escherichia coli, BAA2340
How it was run: as §1

E. coli BAA-2469 = assay: MIC, micro-dilution broth method; details: Escherichia coli, BAA2469
How it was run: as §1

E. coli M66623 = assay: MIC, micro-dilution broth method; details: Escherichia coli
How it was run: as §1

E. coli MG1655 = assay: MIC, micro-dilution broth method; details: Escherichia coli
How it was run: as §1

E. coli ΔrfaC JW3596 = assay: MIC, micro-dilution broth method; details: Escherichia coli
How it was run: as §1

K. pneumoniae BAA-1705 = assay: MIC, micro-dilution broth method; details: Klebsiella pneumoniae, BAA1705
How it was run: as §1

K. pneumoniae BAA-2342 = assay: MIC, micro-dilution broth method; details: Klebsiella pneumoniae, BAA2342
How it was run: as §1

K. pneumoniae M67198 = assay: MIC, micro-dilution broth method; details: Klebsiella pneumoniae
How it was run: as §1

K. pneumoniae S20595 = assay: MIC, micro-dilution broth method; details: Klebsiella pneumoniae
How it was run: as §1

K. pneumoniae S47889 = assay: MIC, micro-dilution broth method; details: Klebsiella pneumoniae
How it was run: as §1

P. aeruginosa PA01 = assay: MIC, micro-dilution broth method; details: Pseudomonas aeruginosa
How it was run: as §1

S. aureus ATCC 29213 = assay: MIC, micro-dilution broth method; details: for increase in MIC in the presence of serum: S. aureus ATCC 29213, +50% human serum vs none
H. sapiens IMR-90 = assay: Cell viability, Alamar Blue
Description: Cell culture. IMR90 cells were obtained from ATCC. IMR90 cells were grown in EMEM with 10% fetal bovine serum (Gemini Benchmark, Cat #100-106), 100 U/mL penicillin, and 100 μg/mL streptomycin. All cells were cultured at 37° C. in a 5% CO2 environment. Media was prepared by the University of Illinois School of Chemical Sciences Cell Media Facility. Sex and age of cell lines: IMR90 ([…]).
Cell viability. Cells seeded (IMR90: 5,000 cells/well) a 96-well plate (Greiner Bio-One, Cat #655180) and were allowed to attach overnight. Cells were treated with investigational compounds in DMSO (30 μM, 1% DMSO final, 100 μL/well). Raptinal (100 μM) was used as a dead control. After 24 h post-treatment, media was exchanged with compound-free media. After 72 h post-treatment, cell viability was assessed using the Alamar Blue method. Stock Alamar Blue solution [10 μL, 440 μM resazurin (Sigma-Aldrich, Cat #R7017) in sterile 1×PBS] was added to each well, and plate was incubated […]. Conversion of Alamar Blue was measured with plate reader (SpectraMax M3, Molecular Devices) by fluorescence (ex 555 nm, em 585 nm, cutoff 570 nm, autogain). Percent death was determined by normalizing to DMSO-treated cells and raptinal-treated cells.

[1] = test system: Gram-negative ESKAPE pathogens and E. coli; assay: MIC, micro-dilution broth method (text summary)
[2] = test system: E. cloacae, K. pneumoniae, and A. baumannii; assay: MIC, micro-dilution broth method (text summary); details: strains of E. cloacae

Cc1c(CN(C)C(=O)/C=C/c2cnc3c(c2)CCC(=O)N3)oc2ccccc12 [Debio-1452, (E)-N-methyl-N-((3-methylbenzofuran-2-yl)methyl)-3-(7-oxo-5,6,7,8-tetrahydro-1,8-naphthyridin-3-yl)acrylamide, reference compound]
MIC (A. baumannii F19521; A. baumannii F19521, read-out: MIC): > 32 µg/mL
MIC (A. baumannii KB304; A. baumannii KB304, read-out: MIC): > 32 µg/mL
MIC (A. baumannii KB357; A. baumannii KB357, read-out: MIC): > 32 µg/mL
MIC (A. baumannii M13100; A. baumannii M13100, read-out: MIC): > 32 µg/mL
MIC (A. baumannii W41979; A. baumannii W41979, read-out: MIC): > 32 µg/mL
MIC (A. baumannii WO22; A. baumannii WO22, read-out: MIC): > 32 µg/mL
MIC (E. cloacae S28901.1; E. cloacae S28901.1, read-out: MIC): > 32 µg/mL
MIC (E. coli AR-0346; E. coli AR-0346, read-out: MIC): > 32 µg/mL
MIC (E. coli AR-0349; E. coli AR-0349, read-out: MIC): 4 µg/mL (≈ 10.7 µM)
MIC (E. coli AR-0493; E. coli AR-0493, read-out: MIC): > 32 µg/mL
MIC (E. coli AR-0495; E. coli AR-0495, read-out: MIC): 8 µg/mL (≈ 21.3 µM)
MIC (E. coli BAA-2340; E. coli BAA-2340, read-out: MIC): > 32 µg/mL
MIC (E. coli BAA-2469; E. coli BAA-2469, read-out: MIC): 4 µg/mL (≈ 10.7 µM)
MIC (E. coli M66623; E. coli M66623, read-out: MIC): > 32 µg/mL
MIC (E. coli MG1655; E. coli MG1655, read-out: MIC): > 32 µg/mL
MIC (E. coli ΔrfaC JW3596): 0.5 µg/mL (≈ 1.33 µM)
MIC (K. pneumoniae BAA-1705; K. pneumoniae BAA-1705, read-out: MIC): > 32 µg/mL
MIC (K. pneumoniae BAA-2342; K. pneumoniae BAA-2342, read-out: MIC): > 32 µg/mL
MIC (K. pneumoniae M67198; K. pneumoniae M67198, read-out: MIC): > 32 µg/mL
MIC (K. pneumoniae S20595; K. pneumoniae S20595, read-out: MIC): > 32 µg/mL
MIC (K. pneumoniae S47889; K. pneumoniae S47889, read-out: MIC): > 32 µg/mL
MIC (P. aeruginosa PA01; P. aeruginosa PA01, read-out: MIC): > 32 µg/mL
MIC (S. aureus ATCC 29213; S. aureus ATCC 29213): 0.008 to 0.016 µg/mL
increase in MIC in the presence of serum (S. aureus ATCC 29213): 8 fold
MIC (S. aureus ATCC 29213; Staphylococcus aureus, ATCC29213, S. aureus ATCC 29213 (+50% Human serum), read-out: MIC): 0.125 µg/mL (≈ 0.333 µM)
MIC (S. aureus ATCC 29213; Staphylococcus aureus, ATCC29213, S. aureus ATCC 29213, read-out: MIC): 0.008 µg/mL (≈ 0.0213 µM)
inhibition at 30 µM (H. sapiens IMR-90; H. sapiens IMR-90, 30 μM, 24 h exposure, viability at 72 h, read-out: % inhibition at 30 μM): 16%
MIC ([1]; Escherichia coli, Gram-negative ESKAPE pathogens and E. coli): > 32 µg/mL
activity (in words) ([1]; Gram-negatives with intact outer membranes): no activity

Cc1c(CN(C)C(=O)/C=C/c2cnc3c(c2)CC(N)C(=O)N3)oc2ccccc12 (stereo not drawn) [Debio-1452-NH3, (E)-3-(6-amino-7-oxo-5,6,7,8-tetrahydro-1,8-naphthyridin-3-yl)-N-methyl-N-((3-methylbenzofuran-2-yl)methyl)acrylamide hydrochloride]
MIC (A. baumannii F19521; F19521): 4 µg/mL
MIC (A. baumannii KB304; KB304): 64 µg/mL
MIC (A. baumannii KB357; KB357): 64 µg/mL
MIC (A. baumannii M13100; M13100): 16 µg/mL
MIC (A. baumannii W41979; W41979): 4 µg/mL
MIC (A. baumannii WO22; WO22): 64 µg/mL
MIC (E. cloacae S28901.1; S28901.1): 16 µg/mL
MIC (E. coli AR-0346): 8 µg/mL
MIC (E. coli AR-0349): 2 µg/mL
MIC (E. coli AR-0493): 4 µg/mL
MIC (E. coli AR-0495): 4 µg/mL
MIC (E. coli BAA-2340): 4 µg/mL
MIC (E. coli BAA-2469): 2 µg/mL
MIC (E. coli M66623; M66623): 8 µg/mL
MIC (E. coli MG1655; MG1655): 4 µg/mL
MIC (E. coli ΔrfaC JW3596): 0.25 µg/mL
MIC (K. pneumoniae BAA-1705): 8 µg/mL
MIC (K. pneumoniae BAA-2342): 16 µg/mL
MIC (K. pneumoniae M67198; M67198): 32 µg/mL
MIC (K. pneumoniae S20595; S20595): 16 µg/mL
MIC (K. pneumoniae S47889; S47889): 8 µg/mL
MIC (P. aeruginosa PA01; PA01): > 64 µg/mL
increase in MIC in the presence of serum (S. aureus ATCC 29213): 2 fold
MIC (S. aureus ATCC 29213; Staphylococcus aureus, ATCC29213, S. aureus ATCC 29213): 0.03 µg/mL
MIC (S. aureus ATCC 29213; Staphylococcus aureus, ATCC29213, S. aureus ATCC 29213 (+50% Human serum)): 0.062 µg/mL
toxicity to mammalian cells grown in culture (in words) (H. sapiens IMR-90; 24 hour exposures): little toxicity
inhibition at 30 µM (H. sapiens IMR-90; Homo sapiens, IMR-90, read-out: % inhibition at 30 μM): 30%
MIC [2]: 4 to 8 µg/mL
